Results on 75 compounds are retold here after PubChem BioAssay AID1549 (Sanford-Burnham Center for Chemical Genomics, 2009).

Molecules are shown by their SMILES. The source made the active and inactive calls. The rule behind the calls is not given here. Where a SMILES comes first, the peptide text is derived from it.

Usually Kd stands for the free concentration of one partner at which half of the binding sites on the other are occupied at equilibrium, for simple one-to-one binding.

The assay has as its target Influenza A virus M2 proton channel (A/TW/4845/1999 H1N1). Briefly: M2 proton channel binding, NMR based, influenza A virus H1N1 strain (AID 1549). The settings on record: NMR binding screen, M2 protein.
As to `CCOC(=O)CC1Sc2ccccc2NC1=O` (stereo not given), the Kd was > 4 mM (inactive).

As for `CC(=O)N[C@@H](CC(=O)O)C(=O)N[C@@H](CCC(=O)O)C(=O)O` (Ac-Asp-Glu-OH), the Kd is > 4 mM (inactive).

For `COc1ccc(Cc2nnc3c4cnn(C)c4ncn23)cc1`, the Kd is > 4 mM (inactive).

On to `CCOc1ccc(N2C(=O)CCC2=O)cc1`, for which the Kd was > 4 mM (inactive).

Turning to `O=C1NC(=S)NC(=O)C1=Cc1ccccc1O`, the Kd was > 4 mM (inactive).

In the case of `CC(=O)Nc1ccc(S(=O)(=O)NC2=NCCS2)cc1`, the Kd is > 4 mM (inactive).

Take `CN1CCOc2cc(C(=O)O)ccc21`: the Kd is > 4 mM (inactive).

As to `Cc1cc(=O)[nH]c(NCc2cccnc2)n1`, the Kd is > 4 mM (inactive).

In the case of `c1ccc(-c2nsc(N3CCCNCC3)n2)cc1`, the Kd was > 4 mM (inactive).

Take `Nc1ccc2c(C(F)(F)F)cc(=O)oc2c1`: the Kd was > 4 mM (inactive).

With `COC(=O)c1cccc(C(F)(F)F)c1`, the Kd was > 4 mM (inactive).

In the case of `CC(=O)Nc1cc2c(cc1C(=O)C(C)C)OCCO2`, the Kd is > 4 mM (inactive).

With `Cc1cc(C)n2nc(SCC(=O)c3ccccc3)nc2n1`, the Kd is > 4 mM (inactive).

As to `Nc1cccc2cccnc12`, the Kd was > 4 mM (inactive).

For the compound `NCc1ccc(S(=O)(=O)O)cc1`, the Kd is > 4 mM (inactive).

For `c1ccc2[nH]c(-c3cscn3)nc2c1`, the Kd is > 4 mM (inactive).

Take `COc1ccc(-c2c(OC)c3c(OC)c4c(cc3oc2=O)OC(C)(C)C=C4)cc1`: the Kd was > 4 mM (inactive).

For `COc1cc(C(C)=O)ccc1OCC(O)Cn1ccnc1` (stereo not given), the Kd was > 4 mM (inactive).

Turning to `O=C(O)C1CSC(c2ccccc2)N1` (stereo not given), the Kd was > 4 mM (inactive).

On to `NC(=O)CSc1ccc(-c2ccccc2)nn1`, for which the Kd was > 4 mM (inactive).

With `O=C(NC1CCS(=O)(=O)C1)c1cccs1` (stereo not given), the Kd was > 4 mM (inactive).

For the compound `O=C1C2C3CCC(O3)C2C(=O)N1c1ccccc1` (stereo not given), the Kd is > 4 mM (inactive).

Take `COc1c2ccoc2cc2oc(=O)ccc12`: the Kd was > 4 mM (inactive).

Consider `COC(=O)c1ccc(/C=C2/NC(=S)NC2=O)cc1`, for which the Kd was > 4 mM (inactive).

In the case of `Cc1cc(C(=O)NN2CCOCC2)c(C)o1`, the Kd was > 4 mM (inactive).

Turning to `NNc1ncnc2sccc12`, the Kd is > 4 mM (inactive).

For `CC(=O)Nc1ccn(Cc2c(F)cccc2Cl)n1`, the Kd was > 4 mM (inactive).

With `O=C1NC(=O)/C(=C/c2ccc(O)cc2)N1`, the Kd was > 4 mM (inactive).

Regarding `N#CC(O[C@@H]1O[C@H](CO[C@@H]2O[C@H](CO)[C@@H](O)[C@H](O)[C@H]2O)[C@@H](O)[C@H](O)[C@H]1O)c1ccccc1` (stereo not given in full), the Kd was > 4 mM (inactive).

With `c1ccc(-n2ncc3c(NCc4ccco4)ncnc32)cc1`, the Kd was > 4 mM (inactive).

On to `O=C(O)CCCCCCCC(=O)O`, for which the Kd was > 4 mM (inactive).

Consider `CCCCCCCCCCCCCCC(C(=O)O)C(O)(CC(=O)OC)C(=O)O` (stereo not given), for which the Kd is > 4 mM (inactive).

`COc1ccc(C2(C)CC(=O)NC2=O)cc1` (stereo not given): the Kd was > 4 mM (inactive).

Consider `O=C(O)C1(S(=O)(=O)c2ccccc2)CC1`, for which the Kd is > 4 mM (inactive).

`O=C(c1nc2ncccn2n1)N1CCc2ccccc2C1`: the Kd is > 4 mM (inactive).

For the compound `NC(=O)CN1CC(c2ccccc2)CC1=O` (stereo not given), the Kd was > 4 mM (inactive).

As to `CCn1c2ccccc2c2nn(C)c(=N)nc21`, the Kd was > 4 mM (inactive).

In the case of `COc1cc(C(=S)N2CCCC2)cc(Cl)c1O`, the Kd is > 4 mM (inactive).

On to `NC(=O)/C=C/C(=O)Nc1ccccc1`, for which the Kd is > 4 mM (inactive).

Consider `CC(C)CCCC(C)[C@H]1CCC2C3CC=C4CC(=O)CC[C@]4(C)C3CC[C@@]21C` (stereo not given in full), for which the Kd was > 4 mM (inactive).

With `CC(=O)N1CN(C(C)=O)CN(C(C)=O)C1`, the Kd is > 4 mM (inactive).

`CCOC(=O)c1snnc1-c1ccccc1`: the Kd was > 4 mM (inactive).

`CNC[C@@H](O)c1ccc(O)c(O)c1`: the Kd is > 4 mM (inactive).

In the case of `CN1C(=O)N(C)C2NC(=O)NC21` (stereo not given), the Kd was > 4 mM (inactive).

Consider `CC(=O)c1ccc(NC(=O)c2ocnc2C)cc1`, for which the Kd is > 4 mM (inactive).

As for `O=C(O)Cn1c(=O)sc2ccccc21`, the Kd was > 4 mM (inactive).

For `CCOC(=O)N1CCN(c2ncnc3c2cnn3C)CC1`, the Kd is > 4 mM (inactive).

Consider `NN1C(=O)/C(=C/c2ccc(O)c(O)c2)SC1=S`, for which the Kd was > 4 mM (inactive).

Consider `CCSc1nc2ccccc2n1CC(N)=O`, for which the Kd is > 4 mM (inactive).

On to `CCCS(=O)(=O)N1CCN(c2ccccn2)CC1`, for which the Kd was > 4 mM (inactive).

For `O=c1[nH]c2sc3c(c2c2nncn12)CCCC3`, the Kd is > 4 mM (inactive).

Turning to `CN(C)C(=O)Nc1ccc(F)cc1F`, the Kd is > 4 mM (inactive).

As for `CN(C)CC(O)C1CCOC(C)(C)C1` (stereo not given), the Kd is > 4 mM (inactive).

For the compound `COc1ccc(Cl)cc1NC(=O)C(N)=O`, the Kd is > 4 mM (inactive).

Turning to `COc1ccc(-c2ccc(OC)cc2C(=O)O)cc1`, the Kd is > 4 mM (inactive).

On to `Cn1c(NCc2ccccc2O)nc2ccccc21`, for which the Kd was > 4 mM (inactive).

In the case of `O=C1C=C(Nc2ccc(O)cc2)c2ccccc2C1=O`, the Kd was > 4 mM (inactive).

As for `O=c1/c(=C/c2ccccc2F)sc2ncnn12`, the Kd is > 4 mM (inactive).

Turning to `C=CCc1cc(C(=O)N2CCCCC2)ccc1O`, the Kd is > 4 mM (inactive).

In the case of `O=S1(=O)NC(=NCc2ccco2)c2ccccc21`, the Kd was > 4 mM (inactive).

As for `Nc1ncnc(Nc2ccccc2C(F)(F)F)n1`, the Kd is > 4 mM (inactive).

`Cc1cc(-c2ccc(Cl)cc2)n2nc(N)nc2n1`: the Kd is > 4 mM (inactive).

`O=C1c2ccccc2C(=O)N1Cc1ccco1`: the Kd was > 4 mM (inactive).

Regarding `CC(=O)O[C@H]1C[C@@H](OC(C)=O)C(C)(C)C2C[C@@H](OC(C)=O)[C@@]3(C)C4=CC(=O)O[C@@H](c5ccoc5)[C@]4(C)CCC3[C@]21C` (stereo not given in full), the Kd was > 4 mM (inactive).

`O=C(NC1CCS(=O)(=O)C1)C1CCCCC1` (stereo not given): the Kd was > 4 mM (inactive).

As to `COC(=O)CSc1n[nH]c(N)n1`, the Kd is > 4 mM (inactive).

As for `CN(c1ccc(C(=O)N2CCCCC2)cc1)S(C)(=O)=O`, the Kd is > 4 mM (inactive).

Consider `NCCCCN`, for which the Kd is > 4 mM (inactive).

Regarding `CC1CCN(S(=O)(=O)N(C)C)CC1`, the Kd is > 4 mM (inactive).

For the compound `OC1CNCc2cc3c(cc21)OCCO3` (stereo not given), the Kd was > 4 mM (inactive).

`CN(C)c1nc(N2CCOCC2)nc(N2CCOCC2)n1`: the Kd was > 4 mM (inactive).

As to `Cc1cc(OC(=O)c2ccco2)c([N+](=O)[O-])c(=O)[nH]1`, the Kd was > 4 mM (inactive).

Take `Cc1c(C(=O)Nc2ccccc2)sc(N)c1C(N)=O`: the Kd was > 4 mM (inactive).

Regarding `O=C(CSc1cccc2cccnc12)N1CCCC1`, the Kd was > 4 mM (inactive).

As for `N#CCCn1ccnc1-c1ccccc1`, the Kd was > 4 mM (inactive).
